This is an account of results in PubChem BioAssay (NCI).

Where “and” joins values, the source holds several entries; their conditions need not be identical. Equal entries are not always repeated.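 Tested at 5 concentrations; 48 h exposure; 96-well plates; endpoints linearly interpolated, else capped at highest concentration. GI50 is the concentration that inhibits growth by half. At the TGI there is no net growth.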 Some results are limits rather than exact numbers.

What all share (assay): DTP human tumour cell line panel, 48 h
For experiment [1], the system named is ACHN renal.
In experiment [2] the test system is BT-549 breast.
Experiment [3] has as its system CAKI-1 renal.
Experiment [4] deals with DU-145 prostate.
The subject of experiment [5] is HS 578T breast.
Experiment [6] has as its system IGROV1 ovarian.
In experiment [7] the test system is KM12 colon.
The test system of experiment [8] is NCI-H226 lung.
Experiment [9] deals with PC-3 prostate.
Experiment [10] concerns RXF 393 renal.
Experiment [11] has as its system SW-620 colon.

The TGI is the concentration giving total growth inhibition. As a reminder, the GI50 is the concentration giving 50% growth inhibition.

As for `S=c1sc2nc(Cl)nc(Cl)c2s1`, the TGI amounted to 26.9 µM in experiment [1]; 24 µM in [2]; 17.8 µM in [3]; 30.9 µM in experiment [4]; 60.4 µM in experiment [5]; 27.7 µM in [6]. Moreover, the TGI in experiment [7] came out at 20.8 µM; in [8], 32.7 µM; in [9], 27.9 µM; in experiment [10], 26 µM; in [11], 21.1 µM.

Regarding `Cc1c(C)c(S(=O)(=O)N(CCCN)OCCCN)c(C)c2c1OC(C)(C)C2`, the TGI in experiment [1] was above 100 µM; in experiment [2], above 100 µM; in experiment [3], above 100 µM; in experiment [4], above 100 µM; in experiment [5], 40.3 µM; in experiment [6], 45.8 µM. For the same molecule, the TGI in experiment [7] is 38.9 µM; in experiment [8] it was above 100 µM; in experiment [9] it was 43.3 µM; in [10], 48.9 µM; in [11], 59.8 µM.

`CCS(=O)(=O)CCn1cnc2c1c(=O)n(C)c(=O)n2C`: the total growth inhibition concentration (TGI) in experiment [1], in [2], in experiment [3], in [4], in experiment [5] and in experiment [6] was above 100 µM throughout. The TGI in [7], in experiment [8], in experiment [9], in experiment [10] and in [11] was above 100 µM throughout.

For `CC1OC(OC2C(O)COC(OC3C(C)OC(OC4C(OC(=O)[C@]56CCC(C)(C)C[C@@H]5C5=CCC7[C@@]8(C)C[C@H](O)[C@H](OC9OC(CO)C(O)C(OC%10OC(CO)C(O)C(O)C%10O)C9O)[C@@](C)(CO)[C@@H]8CC[C@@]7(C)[C@]5(C)CC6)OCC(O)C4O)C(O)C3O)C2O)C(O)C(O)C1O` (some centres not stated), the TGI worked out at 34.5 µM in [1]; 40.7 µM in [2]; 19.1 µM in experiment [3]; 29 µM in experiment [4]; 40.9 µM in experiment [5]; 55.2 µM in [7]. The TGI was 42.9 µM in [8], 23.9 µM in experiment [9], 27.9 µM in experiment [10] and 30.4 µM in experiment [11].

For the molecule `Clc1nc2n(c1/C=C/c1cccs1)CCS2`, the TGI is above 100 µM in [1]; 90.4 µM in experiment [2]; 55.2 µM in experiment [3]; above 100 µM in experiment [4]; above 100 µM in experiment [5]; above 100 µM in [6]. The TGI in [7], in experiment [8], in [9], in experiment [10] and in experiment [11] was above 100 µM in each case.

Take `Cc1ccsc1/C=N/Nc1nncc2ccccc12`: the TGI in [1], in experiment [2], in [3], in [4], in experiment [5] and in experiment [6] was above 100 µM in each case. Further, the TGI in experiment [7], in experiment [8], in experiment [9], in experiment [10] and in experiment [11] was above 100 µM in each case.

With `C[C@]12[C@@H]3CC[C@H]1[C@@H](OC(=O)Nc1cc([N+](=O)[O-])cc([N+](=O)[O-])c1)C(=O)N2CC3`, the TGI in experiment [1], in experiment [2], in experiment [3], in experiment [4], in [5] and in [6] was above 100 µM in each case. The TGI in experiment [7], in [8], in [9], in [10] and in experiment [11] was above 100 µM throughout.

Regarding `O=C(c1cccc(C(=O)c2ccc3c4c(cccc24)C(=O)N(c2ccccc2)C3=O)c1)c1ccc2c3c(cccc13)C(=O)N(c1ccccc1)C2=O`, the TGI in [1], in experiment [2], in experiment [3], in experiment [4], in experiment [5] and in [6] was above 100 µM throughout. In addition, the TGI in experiment [7], in experiment [8], in experiment [9], in experiment [10] and in experiment [11] was above 100 µM throughout.

Take `C/C(=C\c1ccc(Cl)c(Cl)c1)[N+](=O)[O-]`: the GI50 in experiment [1] was 1.77 µM; in experiment [2] it was 7.55 µM; in [3], 1.1 µM; in [7], 1.71 µM; in experiment [8] it was 17.5 µM; in experiment [9], 1.85 µM. Besides, the figures for the GI50 in experiment [10] and in experiment [11] were 1.51 µM and 1.33 µM, respectively. Also, the TGI in experiment [1] is 3.6 µM and 3.82 µM; in experiment [2] it was 20.1 µM; in experiment [3] it was 2.51 µM; in experiment [4], 2.92 µM and 3.12 µM; in [5] it was 9.44 µM; in [6], 3.85 µM. For the same molecule, the TGI is 3.29 µM and 4.16 µM in [7]; 42.6 µM and 5.26 µM in experiment [8]; 3.81 µM in experiment [9]; 2.9 µM in experiment [10].

As to `O=C(O)c1oc(C(=O)O)c(C(=O)O)c1C(=O)O`, the TGI in experiment [1], in experiment [2], in experiment [3], in experiment [4], in experiment [5] and in [6] was above 100 µM each time. The TGI in experiment [7], in experiment [8], in experiment [9], in [10] and in experiment [11] was above 100 µM throughout.

Turning to `CCOC(=O)/C=C(/C(=O)OCC)n1ccc(=O)n(/C(=C/C(=O)OCC)C(=O)OCC)c1=O`, the TGI in experiment [1] was found to be 8.06 µM; in experiment [2], 30.2 µM; in experiment [3], 3.23 µM; in experiment [4] it was 34.9 µM; in experiment [5], 45.5 µM; in [6], 31.4 µM. For the same molecule, the total growth inhibition concentration (TGI) in experiment [7] came out at 33.9 µM; in experiment [8], 18.9 µM; in [9] it was 29 µM; in experiment [10], 9.62 µM; in experiment [11], 4.07 µM.
